# Experimental data published in patent publication US5061795A, “Hexa-cyclic compound” (Daiichi Pharmaceutical Co., Ltd., priority 1987, dated 1991).
# Like-named read-outs stand apart in the source and are kept apart here.
# Columns and labels:
# [1] = clinical tests conducted in the United States; cited from earlier work
# nucleic acid synthesis = details: background statement; cited from earlier work
# [2] = tested on: Mouse leukemia P388 cells; test: MTT assay on mouse leukemia P388 cells, 72 hours; format: cell-based
# Protocol: Mouse leukemia P388 cells, harvested from a pre-culture medium, were suspended in a fresh PRMI 1640 medium supplemented with 10% FCS (GIBCO) and inoculated in a volume of 0.05 ml at 2.5×10^3/ml cells per well in 96-well microplates. Following 24 hour incubation at 37° C. under 5% CO2 and 100 relative humidity, 0.05 ml of the culture medium or a culture medium containing a test compound was dispersed into each well. The cells in the medium were then incubated for 72 hours. At 4 hours before the end of incubation, 0.01 ml of MTT [3-(4,5-dimethylthiazol-2-yl)-2,5-diphenyl-2H-tetrazolium bromide] solution dissolved in phosphate-buffer saline at a concentration of 5 mg/ml was added. After 4 hour exposure with the MTT solution, the reaction was stopped by the addition of 0.2 ml/well of 1M HCl:i-propanol (1:24) followed by thorough mixing. The optical density of the solution was measured by EAR 400 (SLT Labinstruments, Austria) at 540 nm.
# [3] = tested on: P388 murine leukemia cells; test: Antitumour effect against P388 murine leukemia in male CDF-1 mice (median survival time); format: in vivo, mouse; details: for Mice Survived for 40 days: intraperitoneal on day 1, CDF-1 mice; for T/C (median survival time of treated group against control group): intraperitoneal on day 1, P388 cells inoculated on day 0, CDF-1 mice
# Protocol: P388 murine leukemia cells (1×10^6 /mouse) were inoculated into male CDF-1 mice (5-6 mice per group, age 7-10 weeks, weighing 21-34 g) on day 0, and the test compound was administered intraperitoneally on day 1.
# The test compound were dissolved in water or physiological saline after having been converted into sodium salts, or suspended into a physiological saline containing 0.9% benzyl alcohol, 0.4% Tween 80, or 0.5% CMC.
# The antitumour effect was evaluated by the percentage of the median survival time of the treated group (T) against that of the control group (C).
# [4] = tested on: P388 mouse leukemia cells; test: Growth inhibition of P388 mouse leukemia cells, cell count after 72 hours; format: cell-based
# Protocol: A test compound was added to a suspension containing P388 mouse leukemia cells (2×10^4 /ml) and the cells were cultured in 5% CO2 at […]. After 72 hours, the number of the cells were counted to determine the IC50 value.
# [5] = repeated in the table of Experimental Example 3, footnote *, read-out: IC50 (in parentheses; value obtained by determination in Experimental Example 2)
smiles,measurement,setting,value
CC[C@@]1(O)C(=O)OCc2c1cc1n(c2=O)Cc2cc3ccccc3nc2-1 [Camptothecin],safety in clinical tests,[1],found to have a problem in view of safety
same,antitumour activity,nucleic acid synthesis,known to exhibit an antitumour activity because of its capability of inhibiting nucleic acid synthesis
"CCC1(O)C(=O)OCc2c1cc1n(c2=O)Cc2c-1nc1ccc(O)c3c1c2CCC3 (stereo not shown) [Example 1, 9-ethyl-2,3-dihydro-4,9-dihydroxy-1H,12H-benzo[de]pyrano[3',4': 6,7]indolizino[1,2-b]quinoline-10,13(9H,15H)-dione]",IC50,[2],3.8 ng/mL
same,Mice Survived for 40 days,[3]; 240 mg/kg,5 Out of 6
same,T/C (median survival time of treated group against control group),[3]; 240 mg/kg,> 392%
same,IC50,"[4]; cell count, read-out: IC50",1.47 ng/mL
same,IC50,[4]; [5],1.47 ng/mL
"CCC1(O)C(=O)OCc2c1cc1n(c2=O)Cc2c-1nc1ccc(C)c3c1c2CCO3 (stereo not shown) [Example 2, 9-ethyl-1,2-dihydro-9-hydroxy-4-methyl-12H-pyrano[4,3,2-de]pyrano[3',4':6,7]indolizino[1,2-b]quinoline-10,13(9H,15H)-dione]",Mice Survived for 40 days,[3]; 480 mg/kg,4 Out of 6
same,T/C (median survival time of treated group against control group),[3]; 480 mg/kg,> 376%
same,IC50,"[4]; cell count, read-out: IC50",0.81 ng/mL
"CCC1(O)C(=O)OCc2c1cc1n(c2=O)Cc2c-1nc1ccc(C)c3c1c2CCS3 (stereo not shown) [Example 3, 9-ethyl-1,2-dihydro-9-hydroxy-4-methyl-12H-thiino[4,3,2-de]pyrano[3',4':6,7]indolizino[1,2-b]quinoline-10,13(9H,15H)-dione]",Mice Survived for 40 days,[3]; 480 mg/kg,5 Out of 6
same,T/C (median survival time of treated group against control group),[3]; 480 mg/kg,> 400%
same,IC50,"[4]; cell count, read-out: IC50",4.32 ng/mL
"CCC1(O)C(=O)OCc2c1cc1n(c2=O)Cc2c-1nc1ccc(C)c3c1c2CCN3 (stereo not shown) [Example 4, 9-ethyl-1,2-dihydro-9-hydroxy-4-methyl-3H,12H-pyrano[3',4': 6,7]indolizino[1,2-c]benzo[ij][2,7]naphthilidine-10,13(9H,15H)-dione]",IC50,[2],4.46 ng/mL
same,IC50,"[4]; cell count, read-out: IC50",3.73 ng/mL
same,IC50,[4]; [5],3.73 ng/mL
"CCC1(O)C(=O)OCc2c1cc1n(c2=O)Cc2c-1nc1ccc(Cl)c3c1c2CCC3 (stereo not shown) [Example 5, 4-chloro-9-ethyl-2,3-dihydro-9-hydroxy-1H,12H-benzo[de]pyrano[3',4':6,7]indolizino[1,2-b]quinoline-10,13(9H,15H)-dione]",IC50,"[4]; cell count, read-out: IC50",3.3 ng/mL
"CCC1(O)C(=O)OCc2c1cc1n(c2=O)Cc2c-1nc1ccc(O)c3c1c2CC3 (stereo not shown) [Example 8, 8-ethyl-1,2-dihydro-3,8-dihydroxy-11H-cyclopenta[de]pyrano[3',4':6,7]indolizino[1,2-b]quinoline-9,12(8H,14H)-dione]",IC50,"[4]; cell count, read-out: IC50",3.03 ng/mL
"CCC1(O)C(=O)OCc2c1cc1n(c2=O)Cc2c-1nc1ccc(O)c3c1c2CCO3 (stereo not shown) [Example 11, 9-ethyl-1,2-dihydro-4,9-dihydroxy-12H-pyrano[4,3,2-de]pyrano[3',4':6,7]indolizino[1,2-b]quinoline-10,13(9H,15H)-dione]",IC50,[2],4.05 ng/mL
same,IC50,"[4]; cell count, read-out: IC50",2.64 ng/mL
same,IC50,[4]; [5],2.64 ng/mL
"CCC1(O)C(=O)OCc2c1cc1n(c2=O)Cc2c-1nc1ccc(C#N)c3c1c2CCS3 (stereo not shown) [Example 16, 4-cyano-1,2-dihydro-9-ethyl-9-hydroxy-12H-thiino[4,3,2-de]pyrano[3',4':6,7]indolizino[1,2-b]quinoline-10,13(9H,15H)dione]",Mice Survived for 40 days,[3]; 60 mg/kg,4 Out of 6
same,T/C (median survival time of treated group against control group),[3]; 60 mg/kg,443%
same,IC50,"[4]; cell count, read-out: IC50",7.23 ng/mL
"CCC1(O)C(=O)OCc2c1cc1n(c2=O)Cc2c-1nc1ccc(N)c3c1c2CCS3 (stereo not shown) [Example 20, 4-amino-1,2-dihydro-9-ethyl-9-hydroxy-12H-thiino[4,3,2,-de]pyrano[3',4': 6,7]indolizino [1,2-b]quinoline-10,13(9H,15H)-dione]",IC50,"[4]; cell count, read-out: IC50",0.92 ng/mL
"CCC1(O)C(=O)OCc2c1cc1n(c2=O)Cc2c-1nc1cccc3c1c2CCS3 (stereo not shown) [Example 21, 1,2-dihydro-9-ethyl-9-hydroxy-12H-thiino[4,3,2,-de]pyrano[3',4': 6,7]indolizino[1,2-b]quinoline-10,13(9H,15H)-dione]",IC50,"[4]; cell count, read-out: IC50",3.41 ng/mL
"CC[C@@]1(O)C(=O)OCc2c1cc1n(c2=O)Cc2c-1nc1ccc(CN)c3c1c2CCS3.Cl [Example 31, (s)-4-aminomethyl-9-ethyl-1,2-dihydro-9-hydroxy-12H-thiino[4,3,2-de]pyrano[3',4':6,7]indolizino[1,2-b]quinoline-10,13(9H,15H)-dione hydrochloride]",IC50,[2],3.66 ng/mL
"CC[C@@]1(O)C(=O)OCc2c1cc1n(c2=O)Cc2c-1nc1ccc(CN)c3c1c2CCC3.Cl [Example 33, (s)-4-aminomethyl-9-ethyl-2,3-dihydro-9-hydroxy-1H,12H-benzo[de]pyrano[3',4':6,7]indolizino[1,2-b]quinoline-10,13(9H,15H)-dione hydrochloride]",IC50,[2],5.52 ng/mL
"CC[C@@]1(O)C(=O)OCc2c1cc1n(c2=O)Cc2c-1nc1ccc(CNC)c3c1c2CCS3.Cl [Example 36, (s)-9-ethyl-1,2-dihydro-9-hydroxy-4-methylaminomethyl-12H-thiino[4,3,2-de]pyrano[3',4':6,7]indolizino[1,2-b]quinoline-10,13(9H,15H)-dione hydrochloride]",IC50,[2],12.2 ng/mL
"CC[C@@]1(O)C(=O)OCc2c1cc1n(c2=O)Cc2c-1nc1ccc(CN)c3c1c2CCO3.Cl [Example 38, (s)-4-aminomethyl-9-ethyl-1,2-dihydro-9-hydroxy-12H-pyrano[4,3,2-de]pyrano[3',4':6,7]indolizino[1,2-b]quinoline-10,13(9H,15H)-dione hydrochloride]",IC50,[2],6.36 ng/mL
"CCC1(O)C(=O)OCc2c1cc1n(c2=O)Cc2c-1nc1ccc(N)c3c1c2CCC3 (stereo not shown) [Example 39, 4-amino-9-ethyl-2,3-dihydro-9-hydroxy-1H,12H-benzo[de]pyrano [3',3':6,7]indolizino[1,2-b]quinoline-10,13(9H,15H)-dione]",IC50,[2],2.97 ng/mL
